# How the values were obtained:
# [1] = system: malignancy that was metastatic or unresectable; assay: Open-label study of oral PND in terminally-ill canine cancer patients; assay type: in vivo
# From the text: Due to ethical concerns of treating terminally-ill dogs, there was no placebo group.
# The secondary outcomes were: anti-tumor activity, malignancy-associated symptom relief, and the safety and tolerability of PND.
# Case 1, Mast cell carcinoma: Dog (Golden Retriever), female, 6 years old, 28.7 kg. Cancer was confirmed by histopathology report. In mid-May 2019 the administration of oral PND to the dog began after which patient received no other cancer medication. Veterinarian expected survival length of between 4 and 6 months at the time of study entry. Patient received 23 mg/kg/day PND (325 mg in the morning and 325 mg in the evening).
# Case 2, Osteosarcoma: Dog (Saint Bernard), male, 5 years old, 49.7 kg. On 17 May 2019 the administration of oral PND began after which the patient received no other cancer medication. The veterinarian expected a survival length of between 4 and 6 months at the time of study entry. Patient received 20 mg/kg/day PND (325 mg in the morning and 650 mg in the evening).
# Case 3, spindle cell sarcoma: Dog (Border Collie), male, 9 years old, 28.5 kg. In 2014 the dog was diagnosed with a low-grade spindle cell sarcoma, and was due to be euthanized on 11 Feb. 2019, with a life expectancy of 1-2 weeks. Instead, the veterinarian began the administration of oral PND on 11 Feb. 2019 after which patient received no other cancer medication. Patient received 15 mg/kg/day PND (215 mg in the morning and 215 mg in the evening).
# Case 4, non-Hodgkin lymphoma: Dog (Boxer), female, 27 kg, 11 years old. Cancer was confirmed by biopsy report. In December 2018 the administration of oral PND to the dog began after which patient received no other cancer medication. Patient received 15 mg/kg/day PND (210 mg in the morning and 210 mg in the evening). However, the administration of PND stopped in February 2019 (due to shipping problems from the USA to Canada) and never resumed.
# Case 5, mast cell tumor: Dog, male, 27.9 kg. Cancer was confirmed by histopathology report. A tumor was surgically excised from tongue, and there was no clean border. In December 2018 the administration of oral PND began after which the patient received no other cancer medication. Patient received 15 mg/kg/day PND (210 mg in the morning and 210 mg in the evening).
# [2] = system: MDA-MB-231 LM2-LUC4 metastatic breast cancer cells; assay: Metastatic breast cancer tumours in mice, daily gavage; assay type: in vivo
# Description: Treatment began when tumors reached 150-300 mm^3 in size (i.e. Day 1).
# In the PND-treated group (n=6), all 6 mice were given 160 mg/kg from Day 1 to Day 9. PND-treated mice numbers 2, 4, and 5 received 160 mg/kg for the entire study, while PND-treated mice numbers 1, 3, and 6 had the largest tumors in the group on Day 9, and had their doses increased on Day 10 to 240 mg/kg, and again on Day 13 to 320 mg/kg. The control mice (n=6) were given placebo throughout the study. The size of each tumor was measured daily. The protocol's endpoint was when a tumor reached 1500 mm^3 in size, triggering the euthanization of the mouse. For the analysis, the level of significance was set at P<0.05.
# [3] = system: HL-60 cells; assay: Phosphatidylserine externalization, annexin V-FITC/PI flow cytometry; assay type: cell-based, human; conditions: 24 h
# Description: (§1) To determine whether cell death induced by PND was occurring through apoptosis or necrosis, MDA-MB-231 and HL-60 cells were stained with annexin V-FITC and PI and monitored via flow cytometry. Cells were seeded in 24-well plates at a density of 100,000 for adherent MDA-MB-231 and 200,000 HL-60 cells in 1 ml of culture media. After overnight incubation, cells were treated with PND, and incubated for an additional 24 h. For MDA-MB-231 cells, unattached cells were harvested in an ice-cold tube, while adhered cells were detached by using HyQtase (Thermo Fisher) and incubated for around 5 min at 37° C. Both unattached and detached cells harvested from each individual well were washed with ice-cold PBS and centrifuged at 260×g for 5 min. HL-60 were centrifuged directly after the incubation period as they grow in suspension. Cells were then stained with a mixture of annexin V-FITC and PI in 100 μl of binding buffer and incubated on ice in the dark for 15 minutes, following the manufacturer's instructions (Beckman Coulter). Lastly, the cells were resuspended by the addition of 400 μl of ice-cold binding buffer and analysed by flow cytometry (Cytomics FC500; Beckman Coulter). For this series of experiments, cells treated with PBS, as solvent control; treated with H2O2, as a positive control of cytotoxicity; and untreated were included and processed in parallel. For each sample, 10,000 events/cells were collected and analysed using CXP software (Beckman Coulter). Both the experimental samples and their controls were processed similarly and assessed in triplicate. The sum of both early and late stages of apoptosis was calculated to obtain the total percentage of apoptotic cells.
# [4] = system: MDA-MB-231 cells; assay: as above; assay type: cell-based, human; conditions: 24 h
# Description: as §1
structure (smiles),measurement,setting,value
"COC1=CC=C2Nc3cc(Cl)ccc3C(N=C3C=C(CN4CCCC4)C(=O)C(CN4CCCC4)=C3)=C2N1 [PND, 4-[(7-chloro-2-methoxy-1,5-dihydrobenzo[b][1,5]naphthyridin-10-yl)imino]-2,6-bis(pyrrolidin-1-ylmethyl)cyclohexa-2,5-dien-1-one]",study-drug related adverse events,"[1]; Case 1, mast cell carcinoma, 23 mg/kg/day oral",no reports of any study-drug related adverse events
same,survival status,"[1]; Case 1, as of June 2019, start mid-May 2019",still alive
same,possible study-drug related adverse events,"[1]; Case 2, osteosarcoma, 20 mg/kg/day oral, resolved with diphenhydramine","drooling, facial swelling, and vomiting"
same,survival status,"[1]; Case 2, at June 2019, start 17 May 2019",still alive
same,study-drug related adverse events,"[1]; Case 3, spindle cell sarcoma, 15 mg/kg/day oral",no reports of any study-drug related adverse events except initial vomiting
same,survival lengthened by,"[1]; Case 3, life expectancy 1-2 weeks at entry",3 months
same,reduction of volume of each tumor at follow-up,"[1]; Case 3, three tumors",approximately 20%
same,survival lengthened by,[1]; Case 4,2.5 months
same,study-drug related adverse events,"[1]; Case 4, non-Hodgkin lymphoma, 15 mg/kg/day oral",no reports of any study-drug related adverse events
same,tumor shrinkage,"[1]; Case 4, neck tumor, by March 2019",70%
same,tumor volume at follow-up,"[1]; Case 5, mast cell tumor, 15 mg/kg/day oral, 2 cm×1 cm versus 2 cm×1 cm",remained the same volume
same,survival status,"[1]; Case 5, as of June 2019, start December 2018",still alive
same,average tumor size,"[2]; 160 mg/kg daily gavage, Day 1 to 9, control 750 mm^3, P 0.01",430 mm^3
same,"PND accumulation on dissection (stomach, intestines, liver)",[2]; 6 PND-treated mice dissected,no sign of PND accumulation
same,adverse events,[2]; 160-320 mg/kg daily gavage,no reports of negative adverse events except discomfort in walking after Day 15
same,length of survival versus placebo,[2]; 160-320 mg/kg daily gavage,significant difference in lengths of survival favoring the PND-treated group
same,"weight, eating, grooming",[2]; 160-320 mg/kg daily gavage,"no weight loss, no eating disorders, or grooming issues"
same,tumor size versus placebo,"[2]; Day 1 to 15, P 0.0001",tumors had grown larger in the placebo group than in the PND-treated group
same,pigmentation at about Day 20,[2]; all 6 PND-treated mice,"yellowing in the eyes, skin, ears, and paws"
same,apoptotic cells (PS externalization),[3]; 34 μM,14.8%
same,apoptotic cells (PS externalization),[3]; 68 μM,30.2%
same,annexin positive cells (PS externalization),[4]; 11 μM,67.2%
same,annexin positive cells (PS externalization),[4]; 22 μM,71.1%

# Reference: US12201626B2, “Bifunctional compositions for the treatment of cancer” (ARMACEUTICA, INC., priority 2018, dated 2025)
